From patent US20100267928A1, “ACTIVATABLE DIAGNOSTIC AND THERAPEUTIC COMPOUND” (priority 2007, published 2010)
Primed or numbered codes have the meaning given here. Where no end group is shown, it is not given here. The star is where a group is joined. FITC = O=C1OC2(c3ccc(O)cc3Oc3cc(O)ccc32)c2ccc(NC(=S)*)cc21; DOTA = O=C(O)CN1CCN(CC(=O)O)CCN(CC(=O)*)CCN(CC(=O)O)CC1; FITC′ = fluorescent dye, fluorescein isothiocyanate

What was measured:
[1] = tested on: LN18 and U373 glioma cells; assay: Confocal laser scanning microscopy (CLSM) and FACS, staining of cell nuclei; format: cell-based, human; conditions: 130 μM; for staining of the cell nuclei, MMP-2 active: APMA-containing medium without inhibitor; for staining of the cell nuclei, MMP-2 inactive: APMA-containing medium, MMP-2 inactive/inhibited
Procedure: (§1) The FACS analysis was performed on a Becton-Dickinson FACSCalibur. [[…] of the cell suspension (1×10^6 cells+[…] FACS buffer (DPBS buffer with 1% paraformaldehyde)]. Approximately 25.000 to 35.000 cells were measured per sample [fluorescence excitation: argon-ion laser (480 nm), fluorescence detection: 540 to 565 nm band-path filter]. The tests were repeated two times.

[2] = tested on: LN18 glioma cells; assay: FACS analysis of fluorescence-stained cells; format: cell-based, human; conditions: for strongly stained cells in FACS after cleavage by active MMP-2: active versus inactive MMP-2 in culture medium; for fluorescence after cleavage by MMP-2 in comparison to the components 2 and 2A: depending on the concentration, FIG. 5
Procedure: as §1

[3] = tested on: LN18 and U373 glioma cells; conditions: 130 μM; for apoptosis (binding of Alexa annexin to phosphatidyl serine; morphologic alterations), MMP-2 active: APMA-containing medium without inhibitor; for signs of cell death, MMP-2 inactive: data not shown
Procedure: Human malignant glioma cells (U373 and LN18) were seated into 25 cm^2 culture flasks which contained 3 ml RPMI medium. This was left as it is for one day so that enough matrix metalloprotenases (MMP-2) could accumulate.
In a second test the same compounds were again dissolved in the media of 12 flasks (130 μM), however now with MMP-2 inhibitor I (Calbiochem).
As a control four small flasks were used wherein both cell lines were incubated in a one day old medium with and also without APMA.
For the confocal laser scanning microscopy an inverted LSM510 laser scanning microscope (Karl Zeiss, Jena, Deutschland) (Objectives: LD Achroplan 40×0.6, Plan Neofluar 20×0.50, 40×0.75) was used [fluorescence excitation at 488 nm (argon-ion laser) and […] (helium-neon laser)]. Superimposed images of FITC- and alexa-stained cells were produced. All measurements were performed on living, non-fixed cells for three times.

[4] = molecular target: T1, MMP-2 (Homo sapiens, UniProt P08253); assay: Cleavage test with MMP-2, cleavage products examined by HPLC; format: biochemical; conditions: for cleavage of the compound by MMP-2 (HPLC): already active MMP-2 or proform of MMP-2 activated by APMA, 2 hours in HEPES buffer; for cleavage of the compound by MMP-2 in presence of the inhibitor (HPLC): with MMP-2 inhibitor I
T1 construct: purchased Calbiochem
T1 sequence (P08253 110-660): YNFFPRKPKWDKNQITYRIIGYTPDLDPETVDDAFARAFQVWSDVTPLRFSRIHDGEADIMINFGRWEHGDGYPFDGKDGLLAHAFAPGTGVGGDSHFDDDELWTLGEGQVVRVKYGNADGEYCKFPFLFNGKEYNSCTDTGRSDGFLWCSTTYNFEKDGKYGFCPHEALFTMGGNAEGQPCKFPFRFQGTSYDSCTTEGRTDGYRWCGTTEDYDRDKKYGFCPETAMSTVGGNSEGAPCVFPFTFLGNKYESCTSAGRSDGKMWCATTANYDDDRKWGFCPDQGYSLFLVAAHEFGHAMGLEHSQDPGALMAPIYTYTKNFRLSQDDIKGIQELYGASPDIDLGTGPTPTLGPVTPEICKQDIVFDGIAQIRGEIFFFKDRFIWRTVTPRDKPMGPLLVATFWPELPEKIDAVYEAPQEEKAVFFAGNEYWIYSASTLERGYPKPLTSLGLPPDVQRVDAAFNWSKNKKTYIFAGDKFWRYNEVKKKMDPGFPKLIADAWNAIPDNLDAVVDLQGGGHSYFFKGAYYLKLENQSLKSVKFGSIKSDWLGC
Procedure: The incubation in HEPES buffer with active MMP-2 was made for 2 hours.
[…]. For this 1% APMA stock solution (100 mM in DMSO) was added to the solution containing the MMP-2 proenzyme and the compounds (final APMA concentration: 1 mM, with 1% DMSO).
In the following also an incubation of 2 hours was performed. In addition the tests were made with the MMP-2 inhibitor I (Calbiochem). All six compounds were, as a control, also incubated into HEPES buffer without MMP-2 for two hours.

[5] = tested on: U373 and LN18 glioma cells; assay: Magnetic resonance relaxometry on glioma cell centrifugates; format: cell-based, human; conditions: for shortening of the T1 time in comparison to the native control, inhibitor-containing medium: 26 and 130 μM, with MMP-2 inhibitor; for signal intensity at TR: 400 ms, active MMP-2 versus inactive MMP-2: LN18 glioma cell centrifugates, 26 and 130 μm, washed and centrifuged three times; for shortening of the T1 time in comparison to component 2A, inhibitor-free medium: depending on the concentration; for shortening of the T1 time, inhibitor-free medium: without MMP-2 inhibitor
Procedure: Human U373 and LN18 glioma cells were grown in 25 cm^2 culture flasks (70% confluence). Accutase™ (PAA laboratories, Pasching, Austria) was added to strip off the cells from the bottom of the culture flasks.
In a first try the cells were collected and subsequently distributed on 16 Eppendorf-vials (6×10^6 cells per vial). The cells in the first four vials were used as a control (only RPMI medium with and also without APMA, two cell lines). […] In the following it was washed for three times with PBS and centrifuged with 800 rpm (rounds per minute) for 5 minutes.
In another test adherent U373 and LN18 glioma cells were incubated with the compounds 2A, 4A and […], and were stripped off in the following and collected in Eppendorf vials for the MRT. The MRT analysis of the Eppendorf vials with the cell centrifugates were performed in a 3 Tesla full body MRT apparatus (Trio, Siemens Magnetom Sonata, circular polarised knee coil).
The following spin echo sequence was used to obtain sagittal T1-weighted MRT images.
[…] TE (echo time): 7.4 ms, flip angle 90°, averages: 1, concatenations: 2, measurements: 2, number of slices: 19, distance factor: 30%, slice thickness: 3 mm, field of view read: 180 mm, field of view phase: 100%, base resolution: 256, phase resolution: 100%, voxel size: 0.7×0.7×3.0 mm, scan time: 1:48 min.
By means of multiple spin echo measurements (TR: 20-8000 ms, 50 different TR values) different signal intensities were measured through which the T1 relaxation time could be determined.
TR: 20-8000 ms (50 different TR values), TE: 6.4 ms, flip angle 90°, averages: 1, measurements; 1, number of slices: 1, slice thickness: 1 mm, field of view read: 120 mm, field of view phase: 87.5, base resolution 128, phase resolution; 100% voxel size: 0.9×0.9×1 mm.
For the analysis and calculations a Matlab programme (Math Works, Natick, Mass., USA) was used. The T1 values were determined via a two-parameter fit. All signal curves were examined and rated as being mono-exponential. All tests were performed three times.

[6] = tested on: intra-cerebral LN18 brain tumors; assay: In vivo magnetic resonance tomography of nude mice with implanted glioma
Procedure: Female nude mice CD1(Nu/Nu) were obtained from Charles River (Sulzfeld, Germany) (weight: 25 g; age: 7 weeks). Human LN18 glioma cells were grown and implanted into the brain as described by Friese et al. (2003), MICA/NKG2D-mediated Immunogene Therapy of Experimental Gliomas, Cancer Res. 63(24): 8996-9006. The tests were performed 3 weeks after the implantation.
3.6 mg of the compound 4A were dissolved in 1 ml isotonic saline solution and intraperitoneally injected into 2 mice. Further, 3.6 mg of compound 4A were dissolved in 1 ml isotonic saline solution together with 0.5 mg MMP-2 inhibitor I, and in intraperitoneally injected into 2 mice. A mouse was used as control which were injected with 1 ml pure saline solution. Narcosis was performed with ketamine (100 mg/kg) and xylazine (10 mg/kg) intraperitoneally.
MRT was performed with a 3 Tesla full body apparatus (Trio. Siemens).
The mice were placed face down in a wrist array coil.
The MRT protocol consisted of the following sequences:
Tse 3D sequence: slice thickness 0.3125 mm, field of view read 63 mm, field of view phase 100.0%, base resolution 256, phase resolution 100%, slice resolution 100%, voxel seize 0.2×0.2×0.3 mm, slab group 1, slabs 1, slices per slab 16, TR 300 ms, TE 15 ms, flip angle 70, distance factor 50, scan time 12:02 min.
T1 weighted transverse images: slice thickness 2 mm, field of view read 31 mm, field of view phase 82.3%, voxel seize 0.2×0.2×2 mm, TR 600 ms, TE 18 ms, flip angle 180, number of slices 12, distance factor 0, scan time 11:35 min.

| Substance | staining of the cell nuclei, MMP-2 active [1] | staining of the cell nuclei, MMP-2 inactive [1] | strongly stained cells in FACS after cleavage by active MMP-2 ([2]; LN18 glioma cells) | fluorescence after cleavage by MMP-2 in comparison to the components 2 and 2A [2] | apoptosis (binding of Alexa annexin to phosphatidyl serine; morphologic alterations), MMP-2 active [3] | signs of cell death, MMP-2 inactive [3] | cleavage of the compound by MMP-2 (HPLC) [4] | cleavage of the compound by MMP-2 in presence of the inhibitor (HPLC) [4] | shortening of the T1 time in comparison to the native control, inhibitor-containing medium [5] | signal intensity at TR: 400 ms, active MMP-2 versus inactive MMP-2 [5] | shortening of the T1 time in comparison to component 2A, inhibitor-free medium [5] | shortening of the T1 time, inhibitor-free medium [5] | other results |
| --- | --- | --- | --- | --- | --- | --- | --- | --- | --- | --- | --- | --- | --- |
| K(DOTA)-G-PLGLA-GGPKKKRKVRRRR-K(FITC)-GG-K(DOTA) (K(DOTA)GPLGLAGGPKKKRKVRRRRK(FITC)GGK(DOTA)) [V4] | staining of the cell nuclei can only be observed after the cleavage | few stained cell nuclei | considerable increase of the strongly stained cells | stronger fluorescence | apoptotic | did not show any signs of cell death | cleaved | prevented |  |  |  |  | displacement of the peak of the FACS histogram to the right, V4 versus V2 ([2]; LN18 glioma cells, after cleavage by active MMP-2): more pronounced |
| K(DOTA)-GG-K(FITC)-RRRR-G-PLGLA-G-RRRR-K(FITC)-GG-K(DOTA) (K(DOTA)GGK(FITC)RRRRGPLGLAGRRRRK(FITC)GGK(DOTA)) [V5] | accumulates in the cell nuclei | the cells remain unstained |  | stronger fluorescence | apoptotic | did not show any signs of cell death | split into two new peaks | prevented |  |  |  |  | staining of the cell nuclei, MMP-2 inactive ([1]; listed as 5): few stained cell nuclei; cleavage of the compound by MMP-2 (HPLC) ([4]; listed as 5): cleaved |
| K-(GdDOTA)-G-PLGLA-GG-PKKKRKVRRRR-K(FITC)-GG-K(GdDOTA) (K(DOTA)GPLGLAGGPKKKRKVRRRRK(FITC′)GGK(DOTA)-NH2; also: DOTA groups complexed with Gd (GdDOTA)) [V4A] |  | few stained cell nuclei |  | stronger fluorescence | apoptotic |  | cleaved | prevented | minor shortening of the T1 time | considerably higher signal intensity | stronger shortening of the T1 time | more distinct shortening of the T1 time | intensity of the signal in the tumor in comparison to the native image ([6]; 30 minutes after intraperitoneal administration, FIG. 8): considerably decreases; signal intensity in the brain tumors in MR tomography ([6]; intraperitoneal administration, nude mice with intra-cerebral LN18 brain tumors): distinct increase of the signal intensity; signal intensity in the brain tumors, administered in the presence of an MMP-2 inhibitor ([6]; intraperitoneal, with MMP-2 inhibitor, remained only for a short time): very minor increase of the signal intensity; signal intensity in the brain tumors one day after the administration ([6]; intraperitoneal, one day after administration): attenuated form |
| K-(GdDOTA)-GG-K(FITC)-RRRR-G-PLGLA-G-RRRR-K(FITC)-GG-K(GdDOTA) (K(DOTA)GGK(FITC′)RRRRGPLGLAGRRRRK(FITC′)GGK(DOTA)-NH2; also: DOTA groups complexed with Gd (GdDOTA)) [V5A] |  | few stained cell nuclei |  | stronger fluorescence | apoptotic |  |  | prevented |  |  | stronger shortening of the T1 time | more distinct shortening of the T1 time | cleavage of the compound by MMP-2 (HPLC) ([4]; listed as 5A): cleaved; cleavage of the compound by MMP-2 (HPLC) ([4]; listed as V5a): split into two new peaks |
| PKKKRKV-K(FITC)-GG-K(DOTA)-PLGVR-K(DOTA) (PKKKRKVKGGKPLGVRK) [V2] |  | few stained cell nuclei | considerable increase of the strongly stained cells |  |  | did not show any signs of cell death | cleaved | prevented |  |  |  |  |  |
| PKKKRKV-K(FITC)-GG-K(GdDOTA)-PLGVR-K(GdDOTA) (PKKKRKVKGGKPLGVRK; not fully specified) [V2A] |  | few stained cell nuclei |  |  |  | did not show any signs of cell death | cleaved | prevented | minor shortening of the T1 time | considerably higher signal intensity |  | more distinct shortening of the T1 time |  |
